From PubChem BioAssay AID330 (DTP/NCI, 2004)
Several values for one entry are separate records, joined by “and”; a condition that tells them apart may be missing. Identical values can stand only once. Toxic doses and inconclusive results are not listed. The calls were made as follows: active = survival T/C of 150% or more; inactive = T/C below 125% in these data.

Test system: P388 leukemia ip, CD2F1 mice, survival T/C
Assay: NCI In Vivo Anticancer Drug Screen. Data for tumor model P388 Leukemia (intraperitoneal) in CD2F1 (CDF1) mice
Conditions: endpoint: median survival time, higher = longer survival
Method in brief: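 Mice carrying the transplanted tumor received test compound or vehicle. Survival was recorded in each group, and the value is the treated-group measurement divided by that of the vehicle-treated control group.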

[1] = dose: 50.0 mg/kg/injection, schedule: Q01DX005 (ip), vehicle: Klucel (hydroxypropylcellulose) (HPC)
[2] = dose: 100.0 mg/kg/injection, schedule: Q01DX005 (ip), vehicle: Klucel (hydroxypropylcellulose) (HPC)
[3] = dose: 200.0 mg/kg/injection, schedule: Q01DX005 (ip), vehicle: Klucel (hydroxypropylcellulose) (HPC)

Measured: T/C

Clc1ccc(N=NN2CN3CN(C2)CN(N=Nc2ccc(Cl)cc2)C3)cc1
inactive: dose: 100.0 mg/kg/injection, schedule: Q04DX002 (ip), vehicle: Klucel (hydroxypropylcellulose) (HPC) 94 % of control | dose: 200.0 mg/kg/injection, schedule: Q04DX002 (ip), vehicle: Klucel (hydroxypropylcellulose) (HPC) 99 % of control | dose: 400.0 mg/kg/injection, schedule: Q04DX002 (ip), vehicle: Klucel (hydroxypropylcellulose) (HPC) 91 % of control

CSc1nc2nc[nH]c2c(=O)[nH]1
inactive: dose: 12.5 mg/kg/injection, schedule: Q01DX005 (ip), vehicle: saline with Tween-80 100 % of control | dose: 25.0 mg/kg/injection, schedule: Q01DX005 (ip), vehicle: saline with Tween-80 100 % of control | dose: 50.0 mg/kg/injection, schedule: Q01DX005 (ip), vehicle: saline with Tween-80 101 % of control and 105 % of control | dose: 100.0 mg/kg/injection, schedule: Q01DX005 (ip), vehicle: saline with Tween-80 101 % of control | dose: 200.0 mg/kg/injection, schedule: Q01DX005 (ip), vehicle: saline with Tween-80 104 % of control

C#C/C=C/CC1OC(CC)/C=C\C=C/CC1Cl (stereo not drawn)
inactive: dose: 2.0 mg/kg/injection, schedule: Q01DX009 (ip), vehicle: Klucel (hydroxypropylcellulose) (HPC) 100 % of control | dose: 4.0 mg/kg/injection, schedule: Q01DX009 (ip), vehicle: Klucel (hydroxypropylcellulose) (HPC) 109 % of control | dose: 8.0 mg/kg/injection, schedule: Q01DX009 (ip), vehicle: Klucel (hydroxypropylcellulose) (HPC) 96 % of control | dose: 16.0 mg/kg/injection, schedule: Q01DX009 (ip), vehicle: Klucel (hydroxypropylcellulose) (HPC) 104 % of control

COC(=O)C(CSCc1ccccc1)NC(=O)CCNC(=O)OCc1ccccc1 (stereo not drawn)
inactive: dose: 25.0 mg/kg/injection, schedule: Q01DX009 (ip), vehicle: other 103 % of control | dose: 50.0 mg/kg/injection, schedule: Q01DX009 (ip), vehicle: other 103 % of control | dose: 100.0 mg/kg/injection, schedule: Q01DX009 (ip), vehicle: other 96 % of control | dose: 200.0 mg/kg/injection, schedule: Q01DX009 (ip), vehicle: other 90 % of control | dose: 400.0 mg/kg/injection, schedule: Q01DX009 (ip), vehicle: other 97 % of control

O=C1CCC(=O)N1CCCCCCN1C(=O)CCC1=O
inactive: [1] 90 % of control | [2] 99 % of control | [3] 98 % of control | dose: 400.0 mg/kg/injection, schedule: Q01DX005 (ip), vehicle: Klucel (hydroxypropylcellulose) (HPC) 89 % of control

NCC12CC3CC(CC(C3)C1)C2
inactive: dose: 12.5 mg/kg/injection, schedule: Q01DX009 (ip), vehicle: saline with Tween-80 103 % of control | dose: 25.0 mg/kg/injection, schedule: Q01DX009 (ip), vehicle: saline with Tween-80 102 % of control | dose: 50.0 mg/kg/injection, schedule: Q01DX009 (ip), vehicle: saline with Tween-80 100 % of control and 102 % of control

N.N.N.N.N.N.[Cl-].[Pt]
inactive: dose: 12.5 mg/kg/injection, schedule: Q01DX009 (ip), vehicle: saline 92 % of control | dose: 25.0 mg/kg/injection, schedule: Q01DX009 (ip), vehicle: saline 97 % of control

C=CC(=O)OCCCN(CCCC)CCCC
inactive: dose: 25.0 mg/kg/injection, schedule: Q01DX005 (ip), vehicle: Klucel (hydroxypropylcellulose) (HPC) 100 % of control | [1] 95 % of control | [2] 105 % of control | [3] 105 % of control

CC(=O)Nc1ccc(S(=O)(=O)N/N=C/C(=O)O)cc1
inactive: dose: 3.13 mg/kg/injection, schedule: Q01DX009 (ip), vehicle: other 101 % of control | dose: 6.25 mg/kg/injection, schedule: Q01DX009 (ip), vehicle: other 111 % of control | dose: 12.5 mg/kg/injection, schedule: Q01DX009 (ip), vehicle: other 118 % of control
